Measured values from US20130283403A1, “ZEBRAFISH SEIZURE MODEL, METHOD FOR ES[…] SAME, AND METHOD FOR SCREENING ANT[…] USING THE SAME” (NATIONAL CHENG KUNG UNIVERSITY, priority 2012, published 2013).

How the values were obtained:
zebrafish larvae = assay: Establishing the zebrafish seizure model with ginkgotoxin; type: in vivo, zebrafish (Dania rerio, AB strain)
Description: (§1) A solution of the ginkgotoxin is stored below −20° C. The ginkgotoxin concentrate of 40 mM is added to a fish water to keep the concentrations between 0.2 mM and 1 mM while the zebrafish seizure model is induced. The zebrafish is incubated in the fish water without ginkgotoxin for the control group.
(§2) The swimming behavior of zebrafish were was observed directly by naked eyes to determine the test results, and a quantified standard is made by a swimming distance and velocity of the zebrafish. At least 10 zebrafish were used for each group.
(§3) Besides, the zebrafish embryos are placed in 200 μl fish water in a concave on microscope slide. Herein, the zebrafish embryos are observed and recorded under a high-resolution dissecting microscope (Panasonic Digital video camera, DMC-FX55GT). Further, each condition, such as the swimming distance and velocity, of zebrafish are analyzed and quantified by a locomotion tracking system (EthoVision XT8.0 locomotion tracking system® (Noldus Information Technology, Inc., Leesburg, Va., USA)). The zebrafish is incubated in the fish water without ginkgotoxin for the control group.
To induce seizures, the zebrafish larvae at 5 days post fertilization (5-dpf) are placed in fish water containing ginkgotoxin of various concentrations (0.2 mM to 1 mM) and ecorded and analyzed 2 hours later. […]

[1] = tested on: ginkgotoxin-induced zebrafish seizure model; assay: Screening for drugs using the ginkgotoxin-induced zebrafish seizure model; type: in vivo, zebrafish (Dania rerio, AB strain); details: for rescuing effect: zebrafish at six hours post fertilization treated for 3 days, FIGS. 4A and 4B
Description: as §1
(§4) Pyridoxal-5′-phosphate and GABA stock solution of 40 mM are used when measuring the response of zebrafish embryos seizure model with respect to effects of ant-convulsant drugs. Anticonvulsant drugs, such as gabapentin, phenyloin, and primidone, are dissolved in DMSO to make 100 mM concentration. During experiments, anticonvulsant drugs and ginkgotoxin are added to the fish water simultaneously, or the anticonvulsant drugs are added to the fish water three hours before the zebrafish behaviors are recorded and analyzed. This will be described in detail in the following.
as §2, §3
Herein, GABA, PLP, gabapentin and phenyloin are used to perform experiments. The zebrafish embryos are incubated in fish water without ginkgotoxin represented as a “control group”; the zebrafish embryos are treated with ginkgotoxin represented as “GT”; the zebrafish embryos are treated simultaneously with ginkgotoxin and PLP of 0.5 mM represented as “GT+PLP”; the zebrafish embryos are treated simultaneously with ginkgotoxin and GABA of 0.5 mM represented as “GT+GABA”; the zebrafish embryos are treated simultaneously with ginkgotoxin and gabapentin of 1 mM represented as “GT+gabapentin”; the zebrafish embryos are treated simultaneously with ginkgotoxin and phenyloin of 1 mM represented as “GT+phenyloin”. The results are shown in FIGS. 2A to 4B, wherein, FIG. 2A and FIG. 2B are results showing that zebrafish at 3 days post fertilization of the example are treated for 2 hours; FIG. 3A and FIG. 3B are results showing that zebrafish at 5 days post fertilization of the example are treated for 2 hours; FIG. 4A and FIG. 4B are results that zebrafish at 6 hours post fertilization of the example were treated for 3 days. These indicate aggrevated seizure and convulsion when the swimming distance is longer and swimming velocity is faster transitorily.
Here, a comparison between the zebrafish seizure model induced by PTZ and one induced by ginkgotoxin is drawn. Wherein, the zebrafish embryos incubated in fish water without ginkgotoxin represented as a “control group”; the zebrafish embryos only treated with ginkgotoxin represented as “GT”; the zebrafish embryos treated only with PTZ of 0.5 mM represented as “PTZ”; the zebrafish embryos treated simultaneously with ginkgotoxin and DMSO represented as “GT+DMSO”; the zebrafish embryos treated simultaneously with PTZ and DMSO represented as “PTZ+DMSO”; the zebrafish embryos treated simultaneously with ginkgotoxin and gabapentin of 2 mM represented as “GT+gabapentin”; the zebrafish embryos treated simultaneously with PTZ and phenyloin of 2 mM represented as “PTZ+phenyloin”; the zebrafish embryos treated simultaneously with GT and folic acid of 1 mM represented as […]; the zebrafish embryos treated simultaneously with PTZ and folic acid of 1 mM is indicated as “PTZ+folic acid”. […]

[2] = tested on: PTZ-induced zebrafish seizure model; assay: Zebrafish seizure model induced by PTZ; type: in vivo, zebrafish (Dania rerio, AB strain); details: model induced by PTZ 0.5 mM, FIGS. 5A and 5B
Description: as §4, §2
as §3, with “group. […]” for “group.”

[3] = tested on: PTZ-induced zebrafish seizure model; details: current experimental data; cited from earlier work
[4] = 1 mM added simultaneously with ginkgotoxin 0.5 mM, regardless of embryonic stage, FIGS. 2A to 4B
[5] = 0.5 mM added simultaneously with ginkgotoxin 0.5 mM, FIGS. 2A to 4B

COCc1c(CO)cnc(C)c1O [ginkgotoxin, 4-O-methylpyridoxine]
lower dose at which the zebrafish seizure model can be established (zebrafish larvae; 5-dpf larvae, after incubating for 2 hours, FIG. 1B): 0.2 mM
concentration at which the zebrafish seizure model can be established steadily (zebrafish larvae; zebrafish larvae at 5 days post fertilization, in fish water, FIGS. 1A and 1B): 500 µM
state of zebrafish treated with ginkgotoxin (swimming distance and velocity) ([1]; 0.5 mM, 3 dpf or 5 dpf treated 2 hours, 6 hpf treated 3 days, FIGS. 2A to 4B): states of seizure or convulsion

NCC1(CC(=O)O)CCCCC1 [gabapentin]
conditions of seizure and convulsion (swimming distance and velocity) [1, 4]: alleviated with greater extent
rescuing effect ([1]; 1 mM with ginkgotoxin): most obvious signs of rescuing effect

NCCCC(=O)O [GABA, gamma-aminobutyric acid]
conditions of seizure and convulsion (swimming distance and velocity) [1, 5]: alleviated with a greater extent
rescuing effect ([1]; 0.5 mM with ginkgotoxin): most obvious signs of rescuing effect

CCC1(c2ccccc2)C(=O)NCNC1=O [primidone]
detection as antiepileptic or anti-convulsion drug (seizure stage 0/I/II) [2]: could not be accomplished
detection as antiepileptic or anti-convulsion drug (seizure stage 0/I/II) ([1]; model induced by ginkgotoxin, FIGS. 5A and 5B): enable to screen out
response of the PTZ-induced seizure model to the drug [3]: does not respond

O=C1NC(=O)C(c2ccccc2)(c2ccccc2)N1 [phenyloin]
conditions of seizure and convulsion (swimming distance and velocity) [1, 4]: alleviated with greater extent
rescuing effect ([1]; 1 mM with ginkgotoxin): most obvious signs of rescuing effect

Cc1ncc(COP(=O)(O)O)c(C=O)c1O [PLP, Pyridoxal-5′-phosphate]
conditions of seizure and convulsion (swimming distance and velocity) [1, 5]: alleviated with a greater extent
rescuing effect ([1]; 0.5 mM with ginkgotoxin): most obvious signs of rescuing effect
